From ChEMBL document CHEMBL5331063, “Recent advances of β-catenin small molecule inhibitors for cancer therapy: Current development and future perspectives” (Eur J Med Chem, 2022) come the findings set out here.

The subject of data set [1] is HCT-116. Put plainly: Antiproliferative activity against human HCT-116 cells assessed as inhibition of cell growth by MTS assay. The format is functional, cell-based.
Data set [2] has as its system SW480. Put plainly: Antiproliferative activity against human SW480 cells assessed as inhibition of cell growth by MTS assay. The format is functional, cell-based. In general terms: Formazan colour is commonly taken as a measure of viable cells.
Another data set concerns HT-29. The data set is described as follows: Antiproliferative activity against human HT-29 cells assessed as inhibition of cell growth by MTS assay. The format is functional, cell-based.
For data set [3], the target named is T1, TCF4-CTNNB1 complex (Homo sapiens, UniProt P35222+Q9NQB0).
T1 sequence (P35222 whole entry): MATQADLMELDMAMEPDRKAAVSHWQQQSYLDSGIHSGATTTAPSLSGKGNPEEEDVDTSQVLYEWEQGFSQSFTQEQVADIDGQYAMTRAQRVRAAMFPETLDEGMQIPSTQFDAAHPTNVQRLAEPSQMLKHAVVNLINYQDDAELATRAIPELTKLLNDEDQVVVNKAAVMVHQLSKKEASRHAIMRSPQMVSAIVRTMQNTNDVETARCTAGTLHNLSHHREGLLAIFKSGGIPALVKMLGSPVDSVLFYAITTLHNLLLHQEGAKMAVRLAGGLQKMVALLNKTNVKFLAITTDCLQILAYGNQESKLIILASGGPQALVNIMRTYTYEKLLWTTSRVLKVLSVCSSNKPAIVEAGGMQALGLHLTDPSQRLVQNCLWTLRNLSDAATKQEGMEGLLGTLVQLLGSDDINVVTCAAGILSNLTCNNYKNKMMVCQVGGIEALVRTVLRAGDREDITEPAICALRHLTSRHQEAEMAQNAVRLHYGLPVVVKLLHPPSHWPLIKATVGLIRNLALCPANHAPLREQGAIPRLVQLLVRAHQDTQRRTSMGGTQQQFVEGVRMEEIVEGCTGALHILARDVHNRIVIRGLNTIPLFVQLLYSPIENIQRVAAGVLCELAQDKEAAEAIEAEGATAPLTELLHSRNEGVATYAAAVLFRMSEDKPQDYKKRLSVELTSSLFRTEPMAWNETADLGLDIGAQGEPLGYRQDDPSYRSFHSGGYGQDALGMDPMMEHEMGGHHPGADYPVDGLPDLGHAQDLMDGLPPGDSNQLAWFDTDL
T1 sequence (P15884 whole entry): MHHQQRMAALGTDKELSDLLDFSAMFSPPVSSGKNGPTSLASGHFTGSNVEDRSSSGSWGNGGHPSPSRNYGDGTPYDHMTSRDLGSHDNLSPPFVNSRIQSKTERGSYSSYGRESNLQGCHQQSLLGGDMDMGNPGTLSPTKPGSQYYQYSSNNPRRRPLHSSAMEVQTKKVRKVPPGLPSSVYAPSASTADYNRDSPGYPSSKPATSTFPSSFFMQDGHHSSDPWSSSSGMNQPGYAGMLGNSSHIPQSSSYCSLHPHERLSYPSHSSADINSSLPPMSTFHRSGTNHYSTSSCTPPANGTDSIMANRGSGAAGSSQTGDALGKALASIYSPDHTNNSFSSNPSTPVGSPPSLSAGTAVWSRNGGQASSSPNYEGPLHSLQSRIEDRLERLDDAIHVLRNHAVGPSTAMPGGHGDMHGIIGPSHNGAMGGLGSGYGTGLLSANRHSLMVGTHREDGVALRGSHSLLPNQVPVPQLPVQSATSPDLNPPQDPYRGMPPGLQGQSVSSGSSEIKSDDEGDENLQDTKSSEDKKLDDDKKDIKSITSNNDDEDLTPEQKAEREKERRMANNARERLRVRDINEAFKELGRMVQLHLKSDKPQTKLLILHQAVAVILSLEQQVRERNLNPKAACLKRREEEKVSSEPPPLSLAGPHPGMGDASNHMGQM
Put plainly: Inhibition of human beta-Catenin/GST-tagged TCF4 (unknown origin) protein-protein interaction incubated for 2 hrs by ELISA assay. The format is protein-complex assay.

In data set [4] the target is T1, TCF4-CTNNB1 complex. The data set is described as follows: Inhibition of beta-Catenin/GST-tagged TCF4 protein-protein interaction in human HCT-116 cells incubated for 24 hrs by immunoprecipitation assay. The class given is cell-based.
Another data set deals with NCM460. Put plainly: Cytotoxicity against human NCM460 cells incubated for 48 hrs by MTT assay. Conditions: ncm460, 48 h. The format is toxicity, cell-based.
The test system of data set [5] is HCT-116. The data set is described as follows: Cytotoxicity against human HCT-116 cells incubated for 48 hrs by MTT assay. The class given is functional.
The subject of data set [6] is SW480. Put plainly: Cytotoxicity against human SW480 cells incubated for 48 hrs by MTT assay. The class given is functional.
Data set [7] concerns the target T2, beta-catenin-B-cell lymphoma 9 protein complex (Homo sapiens, UniProt O00512+P35222).
T2 sequence (P35222 whole entry): T1 sequence (P35222 whole entry)
T2 sequence (O00512 whole entry): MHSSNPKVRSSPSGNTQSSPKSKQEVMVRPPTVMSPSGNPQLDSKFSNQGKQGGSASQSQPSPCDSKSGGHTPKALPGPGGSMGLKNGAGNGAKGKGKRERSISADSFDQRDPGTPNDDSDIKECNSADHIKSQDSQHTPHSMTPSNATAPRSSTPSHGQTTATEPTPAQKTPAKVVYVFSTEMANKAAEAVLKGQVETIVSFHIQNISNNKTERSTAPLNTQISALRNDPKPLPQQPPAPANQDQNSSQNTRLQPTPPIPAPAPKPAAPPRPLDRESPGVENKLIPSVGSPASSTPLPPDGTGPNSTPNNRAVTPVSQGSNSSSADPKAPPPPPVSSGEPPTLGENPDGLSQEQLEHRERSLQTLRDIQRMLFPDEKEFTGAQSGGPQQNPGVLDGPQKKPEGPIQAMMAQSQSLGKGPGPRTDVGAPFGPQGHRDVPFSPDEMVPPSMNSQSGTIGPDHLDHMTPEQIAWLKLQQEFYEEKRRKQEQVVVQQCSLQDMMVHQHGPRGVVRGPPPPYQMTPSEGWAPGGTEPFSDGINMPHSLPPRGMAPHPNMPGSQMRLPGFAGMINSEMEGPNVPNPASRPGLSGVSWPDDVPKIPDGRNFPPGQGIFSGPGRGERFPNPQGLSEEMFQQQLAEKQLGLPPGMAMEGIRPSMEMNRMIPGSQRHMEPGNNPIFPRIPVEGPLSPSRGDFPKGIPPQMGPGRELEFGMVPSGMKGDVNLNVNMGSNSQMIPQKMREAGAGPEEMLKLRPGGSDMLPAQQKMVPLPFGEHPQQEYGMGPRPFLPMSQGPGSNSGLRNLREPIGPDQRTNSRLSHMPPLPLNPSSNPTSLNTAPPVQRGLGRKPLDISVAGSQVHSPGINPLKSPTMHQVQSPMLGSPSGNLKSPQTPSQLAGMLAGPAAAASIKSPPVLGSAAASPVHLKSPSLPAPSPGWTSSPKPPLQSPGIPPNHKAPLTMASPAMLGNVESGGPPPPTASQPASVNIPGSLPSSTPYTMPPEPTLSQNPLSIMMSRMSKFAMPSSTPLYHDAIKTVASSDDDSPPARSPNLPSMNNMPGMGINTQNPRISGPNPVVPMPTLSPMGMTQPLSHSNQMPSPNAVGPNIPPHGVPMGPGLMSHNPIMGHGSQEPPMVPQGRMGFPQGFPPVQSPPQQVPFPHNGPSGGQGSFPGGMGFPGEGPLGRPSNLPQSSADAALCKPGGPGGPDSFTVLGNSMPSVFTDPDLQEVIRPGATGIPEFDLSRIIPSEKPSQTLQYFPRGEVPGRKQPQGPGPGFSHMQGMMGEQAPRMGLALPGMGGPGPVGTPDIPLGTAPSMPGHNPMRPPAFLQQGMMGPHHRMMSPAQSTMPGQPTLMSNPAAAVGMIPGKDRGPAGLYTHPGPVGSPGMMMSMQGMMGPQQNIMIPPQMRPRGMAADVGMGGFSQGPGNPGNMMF
The data set is described as follows: Inhibition of Flag-tagged beta-Catenin (unknown origin)/Flag-tagged BCL9 (unknown origin) protein-protein interaction assessed as inhibition constant by ELISA assay. The format is protein-complex assay.

The nature of data set [8]: Inhibition of beta-Catenin S33Y mutant/TCF4 protein-protein interaction in human SNU-398 cells incubated for 24 hrs by TOPFLASH reporter assay. The format is cell-based. (Reporter assays use an easily measured gene product as a stand-in for the process of interest.)
Data set [9] concerns the target T3, TCF4-CTNNB1 complex (Homo sapiens, UniProt P15884+P35222).
T3 sequence (P35222 whole entry): T1 sequence (P35222 whole entry)
T3 sequence (P15884 whole entry): T1 sequence (P15884 whole entry)
Put plainly: Inhibition of wild type beta-Catenin/TCF4 protein-protein interaction in human Hep3B cells incubated for 24 hrs by TOPFLASH reporter assay. The class given is cell-based.

In data set [10] the target is T3, TCF4-CTNNB1 complex. Put plainly: Inhibition of beta-Catenin (301 to 670 residues)/TCF4 protein-protein interaction in human HCT-116 cells incubated for 20 hrs by TOPFLASH luciferase reporter assay. The class given is cell-based.
Data set [11] has as its system HCT-116. Put plainly: Antitumor activity against human HCT-116 cells xenografted with mouse assessed as reduction in tumor size at 20 mg/kg,ip administrated 3 times per week for 11 days. As to conditions: time 11 day. Details: scale not given: the % may be the effect or the level left. The format is functional. (In general: In xenograft studies the graft and the host belong to different species.)

In data set [12] the test system is HCT-116. Put plainly: Antitumor activity against human HCT-116 cells xenografted with mouse assessed as reduction in tumor size at 100 mg/kg,ip administrated 3 times per week for 11 days. The class given is functional. Details: scale not given: the % may be the effect or the level left. As to conditions: time 11 day.

For the compound `CCOC(=O)CC[C@H](NC(=O)[C@H](CC(=O)OCC)NC(=O)[C@H](Cc1ccc2ccccc2c1)NC(=O)Cc1cc2cc(Cl)ccc2[nH]1)C(=O)OC`, the concentration for half-maximal inhibition (IC50) with HCT-116 [1] is 10 µM; in the data set on SW480 [2], 28.7 µM; with HT-29 it was 10 µM.
Consider `COc1c(CC(C)OC(=O)c2c(C)cc(O)cc2C)c2c3c(CC(C)OC(=O)c4c(C)cc(O)cc4O)c(OC)c(=O)c4c(O)cc(OC)c(c5c(OC)cc(O)c(c1=O)c52)c43` (centres undefined), for which the IC50 amounted to 4.1 µM on TCF4-CTNNB1 complex [3] and 10 µM against TCF4-CTNNB1 complex [4].
In the case of `C=C1C(=O)C23[C@H](O)C[C@@H]4C(C)(C)[C@@H](OC(C)=O)CC[C@@]4(C)[C@@H]2[C@@H]2O[C@@H]2C1[C@H]3O` (some centres undefined), the Activity with NCM460 is 10%; in the data set with HCT-116 [5] it was >95%; in the data set with SW480 [6] it was >95%.
Take `CC(C)c1cc2c(c(O)c1O)[C@@]1(C(=O)O)CCCC(C)(C)C1CC2` (some centres undefined): the Ki in data set [7] was determined as 3.3 µM.
As for `O=C(Nc1cnn(Cc2ccc(F)cc2)c1)C1CC1c1ccccc1` (centres undefined), the concentration for half-maximal inhibition (IC50) in [8] came out at 32 µM; against TCF4-CTNNB1 complex [9], 25 µM.
As to `COC(=O)c1cccc(NS(=O)(=O)c2ccc(OC)cc2)c1`, it took 0.53 µM to reach half-maximal inhibition against TCF4-CTNNB1 complex [10] (IC50).
For the compound `O=c1ccc2cc(O)c(O)cc2o1` [ESCULETIN], the Activity came out at 44% with HCT-116 [11] and 64% with HCT-116 [12].

A word on the IC50: it is the concentration needed to halve the response being measured. The term Ki denotes the equilibrium dissociation constant of an inhibitor or competing ligand from its target.
